Measured values as given in US9566307B2, “Pharmaceutical composition” (priority 2012, dated 2017).
Residues, ends and D or L forms follow the SMILES beside them. *: point of attachment. Cbz = O=C(OCc1ccccc1)*; CH2F = FC*

Legend:
[1] = tested on: TE8 tumor indicating a resistivity against CDDP; experiment: In vivo antitumor effect of EV4 type to CDDP resistant tumor, tumor volume; set-up: species or system nude mouse; conditions: CDDP administered group, 125 μg/administration in abdominal cavity on second day; FIG. 10
Description: The tumor refraction performance of EV4 type to a TE8 bearing nude mouse indicating a resistivity against CDDP (also called cisplatin) utilized in chemotherapies for esophageal cancer was examined. A nude mouse was inoculated with TE8 like the fifth example (0th day), and when it was confirmed that the tumor major axis became equal to or greater than 4 mm, CDDP dissolved in a normal saline solution was administered in an abdominal cavity at 125 μg/administration (second day). Note that for a non-treated group, the same amount of normal saline solution was administered. Eight days after the inoculation of TE8, furthermore, an EV4 type solution suspended in OPTI-MEM I of 50 μl was administered in the tumor once per a day and at a total of five times and at 1×10^7 TCID50/administration or 5×10^7 TCID50/administration. For the non-treated group and the CDDP administered group, the same amount of OPTI-MEM I was administered. The evaluation items were the tumor volume and the body weight like the fourth example.

[2] = tested on: T.Tn (esophageal cancer cell line); experiment: Effects of various inhibitors to cytotoxicity of EV4 type (1), microscope images; format: cell-based, human; conditions: EV4 type MOI=0.1, four days after infection, 100 μM Z-VADfmk, 25 μM LY294002, 0.1 μM PD0325901, 1.0 μM bpV, FIG. 2
Description: The inhibitors tested to check the effects to the cytotoxicity of EV4 type were Z-VADfmk (R&D System Corporation) as a pan-caspase inhibitor, LY294002 (Santa Cruz Biotechnology Corporation) as a PI3K inhibitor, PD0325901 (Wako Corporation) as an MEK inhibitor, and bpV (Merck Corporation) as a PTEN inhibitor.
T.Tn was disseminated in a plate with 96 wells at 1×10^4 cells/well, and the plate was left stationary under a condition of 37° C. and 5% CO2. The culture medium in the well was replaced with a culture medium added with each inhibitor so as to be 100 μl/well. As to the concentrations of the respective inhibitors, 100 μM for Z-VADfmk, 25 μM for LY294002, 0.1 μM for PD0325901, and 1.0 μM for bpV. After the culture medium was replaced, the plate was left stationary under a condition of 37° C. and 5% CO2 for one hour. After the culture medium was eliminated, 100 μl of the diluted solution of EV4 type diluted with OPTI-MEM I so as to make EV4 type to be MOI=0.1 was added to each well, and was left stationary under a condition of 37° C. and 5% CO2 for one hour. Next, the diluted solution of EV4 type was eliminated, and the RPMI culture media containing the respective inhibitors were added to respective wells, and were co-cultured. Four days after the start of co-culturing, the image of each well was picked up by an optical microscope. Note that the concentration of each inhibitor was set to be a concentration expected not showing a cytotoxicity to T.Tn.

TE8 cells = experiment: Effect of MEK inhibitor to cytotoxicity of EV4 type (2), Celltilter-Glo living cell quantitation; format: cell-based, human; conditions: EV4 type MOI=1.0, PD0325901 50-nM, 48 hours co-culturing, FIG. 3
Description: An effect of an MEK inhibitor PD0325901 to the cytotoxicity of EV4 type was quantitatively examined.
TE8 cells was disseminated in a plate with 96 wells at 1×10^4 cells/well, and the plate was left stationary for six hours under a condition of 37° C. and 5% CO2. The culture medium in the well was replaced with a culture medium containing a DMSO solution of PD0325901 of 50-nM. After the culture medium was replaced, the plate was left stationary for one hour under a condition of 37° C. and 5% CO2. After the culture medium was eliminated, 100 μl of EV4 type diluted solution diluted with OPTI-MEM I so as to have MOI=1.0 was added to each well, and the plate was left stationary for one hour under a condition of 37° C. and 5% CO2. For a control, a diluted solution of 100 μl containing no EV4 type was added. Next, the diluted solution was eliminated, and the culture media containing PD0325901 were added to respective wells, and were co-cultured. 48 hours after the start of co-culturing, living cells were quantitated using a Celltilter-Glo (Registered Trademark) kit of Promega corporation.

HT29 = experiment: Oxaliplatin resistance check, cell survival rate by MTS technique; format: cell-based, human; conditions: HT29, oxaliplatin 100 μM, 48 hours; FIG. 17
Description: (§1) In addition, in order to check the oxaliplatin resistance of, among the test-target cells, WiDr and HT29, respective cell survival rates of WiDr and HT29 after cultured for 48 hours in culture media containing oxaliplatin of a predetermined concentration were evaluated through an MTS technique.

WiDr = experiment: as above; format: cell-based, human; conditions: oxaliplatin 200 μM, 48 hours, FIG. 17
Description: as §1

Compound	Effect of inhibitor on the cytotoxicity by EV4 type [2]	also measured
[NH2][Pt]([NH2])([Cl])[Cl] [CDDP, cisplatin]	–	Tumor volume, change with time [1]: suppression of the increase of the tumor volume for eight days, but the increase of the tumor volume was observed thereafter
O=c1cc(N2CCOCC2)oc2c(-c3ccccc3)cccc12 [LY294002]	enhanced	–
O=C(NOC[C@H](O)CO)c1ccc(F)c(F)c1Nc1ccc(I)cc1F [PD0325901]	enhanced	Effect of inhibitor on the cytotoxicity of EV4 type (cell survival rate) (TE8 cells): significantly enhanced
COC(=O)C[C@H](NC(=O)[C@H](C)NC(=O)[C@@H](NC(=O)OCc1ccccc1)C(C)C)C(=O)CF [Z-VADfmk] (Cbz-Val-Ala-Asp(OMe)-CH2F)	reduced	–
O=C1[O][Pt]2([NH][C@@H]3CCCC[C@H]3[NH]2)[O]C1=O [oxaliplatin]	–	Cell survival rate (HT29): maintained the similar level of cell survival rate to those of the control group; Cell survival rate (WiDr): maintained the similar level of cell survival rate to those of the control group
bpV	reduced	–
